Source: ChEMBL document CHEMBL5260810, “Inhibition of bromodomain-containing protein 9 for the prevention of epigenetically-defined drug resistance” (Bioorg Med Chem Lett, 2017)

Experiments:
[1] = biological target: Tyrosine-protein kinase Yes (Homo sapiens) (UniProt P07947); experiment: Inhibition of Yes (unknown origin) at 1 uM relative to control
[2] = biological target: Histone acetyltransferase KAT2A (Homo sapiens, UniProt Q92830); experiment: Binding affinity to human partial length GCN5L2 (E726 to K837 residues) expressed in bacterial expression system by BROMOscan assay
[3] = biological target: D(1A) dopamine receptor (Homo sapiens) (UniProt P21728); experiment: Displacement of [3H]-SCH 23390 from human recombinant dopamine D1 receptor at 10 uM by scintillation counting 60 mins analysis relative to control
BT-549 = experiment: Cytotoxicity against human BT-549 cells measured after 8 days; assay type: functional, cell-based; conditions: BT-549, 192 h
HEL = experiment: Cytotoxicity against human HEL cells measured after 8 days; assay type: functional, cell-based; conditions: 192 h
Homo sapiens = species on record: Homo sapiens; experiment: Displacement of [3H] Dofetilide from human potassium channel at 10 uM relative to control
[4] = biological target: Proto-oncogene tyrosine-protein kinase receptor Ret (Homo sapiens) (UniProt P07949); experiment: Inhibition of Ret (unknown origin) at 1 uM relative to control
[5] = Cytotoxicity against human KMS-21BM cells measured after 8 days; assay type: functional, cell-based; conditions: 192 h
[6] = biological target: Dual specificity mitogen-activated protein kinase kinase 1 (Homo sapiens) (UniProt Q02750); experiment: Inhibition of MEK1 (unknown origin) at 1 uM relative to control
NCI-H2228 = experiment: Cytotoxicity against human NCI-H2228 cells measured after 8 days; assay type: functional, cell-based; conditions: NCI-H2228, 192 h
[7] = Cytotoxicity against human OV7 cells measured after 8 days; assay type: functional, cell-based; conditions: OV7, 192 h
[8] = biological target: Adrenergic receptor alpha-1 (Rattus norvegicus) (UniProt P15823+P23944+P43140); experiment: Displacement of [3H]-prazosin from rat alpha1 adrenoceptor at 10 uM after 60 mins by scintillation counting analysis relative to control; assay type: protein assay
[9] = Cytotoxicity against human RERF-LC-OK cells measured after 8 days; assay type: functional, cell-based; conditions: 192 h
SW948 = experiment: Cytotoxicity against human SW948 cells measured after 8 days; assay type: functional, cell-based; conditions: SW948, 192 h
LoVo = experiment: Cytotoxicity against human LoVo cells measured after 8 days; assay type: functional, cell-based; conditions: 192 h
[10] = biological target: Bromodomain-containing protein 2 (Homo sapiens, UniProt P25440); experiment: Binding affinity to human partial length BRD2 bromodomain 2 isoform 1 (E348 to D455 residues) expressed in bacterial expression system by BROMOscan assay
GTL 16 cell line = experiment: Cytotoxicity against human GTL 16 cell line measured after 8 days; assay type: functional, cell-based; conditions: GTL 16, 192 h
SW-620 = experiment: Cytotoxicity against human SW620 cells measured after 8 days; assay type: functional, cell-based; conditions: SW-620, 192 h
[11] = biological target: Transcription initiation factor TFIID subunit 1 (Homo sapiens, UniProt P21675); experiment: Displacement of biotinylated small-molecule ligand from recombinant His-tagged TAF1 bromodomain 2 (unknown origin) measured after 10 mins by TR-FRET assay
MDA-MB-436 = experiment: Cytotoxicity against human MDA-MB-436 cells measured after 8 days; assay type: functional, cell-based; conditions: MDA-MB-436, 192 h
NCI-H520 = experiment: Cytotoxicity against human NCI-H520 cells measured after 8 days; assay type: functional, cell-based; conditions: NCI-H520, 192 h
HCC1143 = experiment: Cytotoxicity against human HCC1143 cells measured after 8 days; assay type: functional, cell-based; conditions: HCC1143, 192 h
[12] = Cytotoxicity against human NCI-H2803 cells measured after 8 days; assay type: functional, cell-based; conditions: NCI-H2803, 192 h
[13] = Cytotoxicity against human HCC2302 cells measured after 8 days; assay type: functional, cell-based; conditions: HCC2302, 192 h
[14] = Cytotoxicity against human SNU-719 cells measured after 8 days; assay type: functional, cell-based; conditions: SNU-719, 192 h
[15] = biological target: T1, Endothelin-1 receptor (Homo sapiens) (UniProt P25101); experiment: Displacement of [125I]-endothelin-1 from human recombinant ETA receptor at 10 uM after 120 mins by scintillation counting analysis relative to control
T1 sequence (whole entry): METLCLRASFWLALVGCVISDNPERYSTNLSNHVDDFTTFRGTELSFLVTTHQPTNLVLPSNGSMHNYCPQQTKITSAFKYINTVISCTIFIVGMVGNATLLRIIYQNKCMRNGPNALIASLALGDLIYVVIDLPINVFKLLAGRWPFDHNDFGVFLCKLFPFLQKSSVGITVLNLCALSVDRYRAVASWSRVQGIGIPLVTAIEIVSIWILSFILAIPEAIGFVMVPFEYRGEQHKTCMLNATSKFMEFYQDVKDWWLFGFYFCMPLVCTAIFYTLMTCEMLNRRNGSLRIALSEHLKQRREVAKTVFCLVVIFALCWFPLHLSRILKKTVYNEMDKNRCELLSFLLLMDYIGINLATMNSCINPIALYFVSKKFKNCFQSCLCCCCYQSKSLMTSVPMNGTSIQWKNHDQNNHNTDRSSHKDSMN

NCI-H1155 = experiment: Cytotoxicity against human NCI-H1155 cells measured after 8 days; assay type: functional, cell-based; conditions: NCI-H1155, 192 h
[16] = biological target: Macrophage colony-stimulating factor 1 receptor (Homo sapiens) (UniProt P07333); experiment: Inhibition of CSF1R (unknown origin) at 1 uM relative to control
[17] = biological target: Bromodomain-containing protein 8 (Homo sapiens, UniProt Q9H0E9); experiment: Binding affinity to BRD8 bromodomain 1 (unknown origin) by BROMOscan assay
[18] = biological target: Bromodomain-containing protein 4 (Homo sapiens, UniProt O60885); experiment: Displacement of biotinylated small-molecule ligand from recombinant His-tagged BRD4 bromodomain 1 (unknown origin) measured after 10 mins by TR-FRET assay
[19] = Cytotoxicity against human SK-MEL-23 cells measured after 8 days; assay type: functional, cell-based; conditions: SK-MEL-23, 192 h
[20] = Cytotoxicity against human KMS-27 cells measured after 8 days; assay type: functional, cell-based; conditions: KMS-27, 192 h
[21] = Cytotoxicity against human WSU-FSCCL cells measured after 8 days; assay type: functional, cell-based; conditions: 192 h
LCLC-97TM1 = experiment: Cytotoxicity against human LCLC-97TM1 cells measured after 8 days; assay type: functional, cell-based; conditions: LCLC-97TM1, 192 h

Proto-oncogene tyrosine-protein kinase receptor Ret (Homo sapiens), sequence (P07949 whole entry): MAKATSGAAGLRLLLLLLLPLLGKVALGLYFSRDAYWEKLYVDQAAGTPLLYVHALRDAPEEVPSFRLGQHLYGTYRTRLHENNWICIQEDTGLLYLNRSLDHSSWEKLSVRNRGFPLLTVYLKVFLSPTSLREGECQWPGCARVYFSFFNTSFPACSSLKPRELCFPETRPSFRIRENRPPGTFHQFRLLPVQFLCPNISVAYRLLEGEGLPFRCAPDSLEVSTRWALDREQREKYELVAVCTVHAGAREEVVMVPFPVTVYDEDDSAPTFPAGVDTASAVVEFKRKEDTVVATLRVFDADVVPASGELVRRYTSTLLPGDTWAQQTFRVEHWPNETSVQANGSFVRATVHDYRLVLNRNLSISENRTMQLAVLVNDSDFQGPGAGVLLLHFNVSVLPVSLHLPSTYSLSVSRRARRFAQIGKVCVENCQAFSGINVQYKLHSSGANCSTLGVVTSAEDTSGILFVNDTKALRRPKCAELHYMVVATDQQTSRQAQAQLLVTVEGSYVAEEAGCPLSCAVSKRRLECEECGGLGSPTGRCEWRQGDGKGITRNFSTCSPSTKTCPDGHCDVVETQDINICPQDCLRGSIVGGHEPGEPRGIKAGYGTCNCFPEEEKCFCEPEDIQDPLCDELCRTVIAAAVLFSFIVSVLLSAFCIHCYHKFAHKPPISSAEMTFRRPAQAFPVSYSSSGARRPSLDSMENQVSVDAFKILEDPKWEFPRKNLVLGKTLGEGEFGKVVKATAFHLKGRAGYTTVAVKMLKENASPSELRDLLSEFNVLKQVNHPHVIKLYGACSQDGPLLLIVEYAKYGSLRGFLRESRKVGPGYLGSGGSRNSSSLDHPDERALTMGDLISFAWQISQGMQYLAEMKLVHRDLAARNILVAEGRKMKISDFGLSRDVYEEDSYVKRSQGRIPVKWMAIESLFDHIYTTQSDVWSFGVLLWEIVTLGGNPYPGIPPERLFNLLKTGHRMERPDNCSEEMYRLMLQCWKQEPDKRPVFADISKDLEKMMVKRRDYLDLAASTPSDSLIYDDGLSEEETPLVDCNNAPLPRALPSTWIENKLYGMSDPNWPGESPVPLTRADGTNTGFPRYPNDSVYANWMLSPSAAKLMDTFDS
Histone acetyltransferase KAT2A, sequence (Q92830 whole entry, the tested form may be a part): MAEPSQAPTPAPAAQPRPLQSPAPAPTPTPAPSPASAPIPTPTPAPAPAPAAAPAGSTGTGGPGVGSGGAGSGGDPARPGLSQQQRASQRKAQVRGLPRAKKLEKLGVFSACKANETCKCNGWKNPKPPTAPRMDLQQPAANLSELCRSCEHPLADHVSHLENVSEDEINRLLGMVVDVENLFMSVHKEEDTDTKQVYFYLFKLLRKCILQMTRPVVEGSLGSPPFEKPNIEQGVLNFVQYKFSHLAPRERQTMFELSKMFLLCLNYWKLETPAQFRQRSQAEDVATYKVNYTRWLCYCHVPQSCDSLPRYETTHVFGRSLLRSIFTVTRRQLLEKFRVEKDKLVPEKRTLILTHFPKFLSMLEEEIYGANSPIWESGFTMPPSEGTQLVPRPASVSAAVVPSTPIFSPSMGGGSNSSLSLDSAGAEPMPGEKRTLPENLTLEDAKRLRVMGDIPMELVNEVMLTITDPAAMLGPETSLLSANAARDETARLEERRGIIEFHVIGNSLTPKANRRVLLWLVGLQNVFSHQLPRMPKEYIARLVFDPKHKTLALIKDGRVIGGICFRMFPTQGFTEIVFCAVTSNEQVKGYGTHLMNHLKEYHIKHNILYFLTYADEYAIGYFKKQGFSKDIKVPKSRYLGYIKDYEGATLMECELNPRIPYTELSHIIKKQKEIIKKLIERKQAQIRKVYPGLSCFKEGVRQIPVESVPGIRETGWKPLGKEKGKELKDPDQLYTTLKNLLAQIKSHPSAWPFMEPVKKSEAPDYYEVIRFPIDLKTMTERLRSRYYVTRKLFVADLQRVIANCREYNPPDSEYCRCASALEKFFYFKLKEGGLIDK
Macrophage colony-stimulating factor 1 receptor (Homo sapiens), sequence (P07333 whole entry): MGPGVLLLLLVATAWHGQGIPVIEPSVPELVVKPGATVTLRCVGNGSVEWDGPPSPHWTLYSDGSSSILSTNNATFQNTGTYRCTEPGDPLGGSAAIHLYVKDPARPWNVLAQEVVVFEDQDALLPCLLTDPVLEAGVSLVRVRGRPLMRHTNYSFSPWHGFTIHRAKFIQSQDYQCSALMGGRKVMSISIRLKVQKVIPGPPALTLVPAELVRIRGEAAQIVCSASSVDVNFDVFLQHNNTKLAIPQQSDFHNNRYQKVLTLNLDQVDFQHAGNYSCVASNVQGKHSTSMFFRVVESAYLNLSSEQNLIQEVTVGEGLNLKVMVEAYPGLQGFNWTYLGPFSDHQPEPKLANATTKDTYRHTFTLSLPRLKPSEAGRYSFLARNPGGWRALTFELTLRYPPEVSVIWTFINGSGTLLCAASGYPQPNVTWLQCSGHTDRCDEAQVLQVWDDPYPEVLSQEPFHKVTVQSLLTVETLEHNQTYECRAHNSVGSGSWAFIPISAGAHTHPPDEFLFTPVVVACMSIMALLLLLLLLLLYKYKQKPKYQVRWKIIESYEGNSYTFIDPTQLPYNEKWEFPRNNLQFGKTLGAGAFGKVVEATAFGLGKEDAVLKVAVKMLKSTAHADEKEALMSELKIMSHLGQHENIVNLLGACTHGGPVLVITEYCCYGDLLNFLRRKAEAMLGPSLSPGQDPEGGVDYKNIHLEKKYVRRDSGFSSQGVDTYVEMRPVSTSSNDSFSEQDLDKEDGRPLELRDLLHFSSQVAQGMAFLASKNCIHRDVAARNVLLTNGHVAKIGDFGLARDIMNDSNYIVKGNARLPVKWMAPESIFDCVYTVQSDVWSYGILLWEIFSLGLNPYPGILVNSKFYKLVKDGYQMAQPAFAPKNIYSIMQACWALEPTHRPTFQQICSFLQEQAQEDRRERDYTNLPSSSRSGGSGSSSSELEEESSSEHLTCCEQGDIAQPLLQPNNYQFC
Transcription initiation factor TFIID subunit 1, sequence (P21675 whole entry): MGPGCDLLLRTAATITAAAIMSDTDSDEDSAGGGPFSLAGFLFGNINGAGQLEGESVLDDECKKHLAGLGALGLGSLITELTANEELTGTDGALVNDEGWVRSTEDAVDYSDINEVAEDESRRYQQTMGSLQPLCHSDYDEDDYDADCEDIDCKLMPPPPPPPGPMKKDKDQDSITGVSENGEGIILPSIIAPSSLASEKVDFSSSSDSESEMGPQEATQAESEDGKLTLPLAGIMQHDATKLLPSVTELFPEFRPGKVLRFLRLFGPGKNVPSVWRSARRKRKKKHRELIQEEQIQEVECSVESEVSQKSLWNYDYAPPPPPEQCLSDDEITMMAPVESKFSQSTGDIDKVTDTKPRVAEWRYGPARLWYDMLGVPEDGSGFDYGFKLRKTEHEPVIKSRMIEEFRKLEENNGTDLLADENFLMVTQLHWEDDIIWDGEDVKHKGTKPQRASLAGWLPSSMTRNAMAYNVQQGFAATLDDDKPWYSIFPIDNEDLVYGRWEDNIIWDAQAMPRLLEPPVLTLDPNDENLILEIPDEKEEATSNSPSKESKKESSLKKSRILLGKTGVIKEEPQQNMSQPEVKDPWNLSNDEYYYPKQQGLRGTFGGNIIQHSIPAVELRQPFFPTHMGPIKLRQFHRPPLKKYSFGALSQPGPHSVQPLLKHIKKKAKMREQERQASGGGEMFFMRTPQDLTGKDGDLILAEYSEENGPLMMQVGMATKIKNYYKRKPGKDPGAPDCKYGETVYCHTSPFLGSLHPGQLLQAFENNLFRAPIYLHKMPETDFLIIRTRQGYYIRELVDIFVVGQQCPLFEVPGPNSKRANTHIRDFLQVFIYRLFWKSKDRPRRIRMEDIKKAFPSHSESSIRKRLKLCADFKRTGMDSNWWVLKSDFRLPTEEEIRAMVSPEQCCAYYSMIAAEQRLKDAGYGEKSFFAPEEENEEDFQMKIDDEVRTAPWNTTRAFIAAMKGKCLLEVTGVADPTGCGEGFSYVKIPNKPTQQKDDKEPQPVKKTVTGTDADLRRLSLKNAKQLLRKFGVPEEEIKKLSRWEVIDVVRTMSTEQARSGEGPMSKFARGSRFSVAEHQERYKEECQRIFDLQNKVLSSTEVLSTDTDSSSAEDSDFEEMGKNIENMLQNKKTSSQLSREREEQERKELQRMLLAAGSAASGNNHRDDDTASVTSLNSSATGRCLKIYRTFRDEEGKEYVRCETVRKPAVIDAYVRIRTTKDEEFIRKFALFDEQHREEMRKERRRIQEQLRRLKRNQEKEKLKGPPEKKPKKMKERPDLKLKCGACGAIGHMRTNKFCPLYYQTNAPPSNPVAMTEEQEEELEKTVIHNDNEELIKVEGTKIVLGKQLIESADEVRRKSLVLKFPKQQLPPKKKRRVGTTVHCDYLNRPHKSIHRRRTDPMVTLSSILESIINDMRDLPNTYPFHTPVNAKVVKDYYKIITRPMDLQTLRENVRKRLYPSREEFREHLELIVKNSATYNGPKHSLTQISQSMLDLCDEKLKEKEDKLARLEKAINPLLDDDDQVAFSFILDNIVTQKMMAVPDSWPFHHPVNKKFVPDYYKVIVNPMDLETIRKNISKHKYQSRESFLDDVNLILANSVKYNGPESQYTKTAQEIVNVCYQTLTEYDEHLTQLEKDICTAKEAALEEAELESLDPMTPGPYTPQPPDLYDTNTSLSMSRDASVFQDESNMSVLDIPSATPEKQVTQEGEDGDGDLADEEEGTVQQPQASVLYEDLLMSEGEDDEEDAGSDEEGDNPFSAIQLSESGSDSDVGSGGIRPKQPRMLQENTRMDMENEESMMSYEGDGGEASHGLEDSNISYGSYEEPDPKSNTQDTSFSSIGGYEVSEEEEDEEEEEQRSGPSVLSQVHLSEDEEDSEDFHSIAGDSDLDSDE

SMILES	inhibition [1] [%]	Kd [2] [nM]	Activity [3] [%]	IC50 (BT-549) [µM]	IC50 (HEL) [µM]	Activity (Homo sapiens) [%]	inhibition [4] [%]	IC50 [5] [µM]	inhibition [6] [%]	IC50 (NCI-H2228) [µM]	IC50 [7] [µM]	Activity [8] [%]	IC50 [9] [µM]	IC50 (SW948) [µM]	IC50 (LoVo) [µM]	Kd [10] [µM]	IC50 (GTL 16 cell line) [µM]	IC50 [11] [µM]	Kd [17] [µM]	IC50 [18] [µM]	also measured
C/C=C/Cn1cc(-c2ccc(C(C)(C)O)cc2OC)c2cc[nH]c2c1=O	6	410	0	12.2	14.8	-5	2	20	1	20	20	7	20	20	20	3.3	20	> 20	> 10	5.1	IC50 (SW-620): 20 µM; IC50 (MDA-MB-436): 20 µM; IC50 (NCI-H520): 20 µM; IC50 (HCC1143): 20 µM; IC50 [12]: 20 µM; IC50 [13]: 20 µM; IC50 [14]: 20 µM; Activity [15]: 12%; IC50 (NCI-H1155): 20 µM; inhibition [16]: 6.5%; IC50 [19]: 20 µM; IC50 [20]: 20 µM; IC50 [21]: 13.5 µM; IC50 (LCLC-97TM1): 20 µM
C/C=C/Cn1cc(-c2cc(OC)c(C(C)(C)O)cc2OC)c2cc(C)[nH]c2c1=O	–	160	–	–	–	–	–	–	–	–	–	–	–	–	–	> 10	–	> 20	> 10	> 20	–
C/C=C/Cn1cc(-c2ccc(C(=O)N3CCOCC3)cc2)c2cc[nH]c2c1=O	11.5	> 10000	6	20	18	13	-0.9	14.8	3	20	20	7	20	20	20	4.3	20	1.5	> 10	3.4	IC50 (SW-620): 20 µM; IC50 (MDA-MB-436): 20 µM; IC50 (NCI-H520): 20 µM; IC50 (HCC1143): 20 µM; IC50 [12]: 20 µM; IC50 [13]: 20 µM; IC50 [14]: 20 µM; Activity [15]: 10%; IC50 (NCI-H1155): 20 µM; inhibition [16]: 2.8%; IC50 [19]: 20 µM; IC50 [20]: 20 µM; IC50 [21]: 20 µM; IC50 (LCLC-97TM1): 20 µM
C/C=C/Cn1cc(-c2cc(OC)c(C(=O)N3CCOCC3)cc2OC)c2cc(C)[nH]c2c1=O	5.5	> 10000	4	2	2	18	3	2	4	2	2	3	2	2	2	> 10	2	> 20	> 10	> 20	IC50 (SW-620): 2 µM; IC50 (MDA-MB-436): 2 µM; IC50 (NCI-H520): 2 µM; IC50 (HCC1143): 2 µM; IC50 [12]: 2 µM; IC50 [13]: 2 µM; IC50 [14]: 2 µM; Activity [15]: 16%; IC50 (NCI-H1155): 2 µM; inhibition [16]: 6.5%; IC50 [19]: 2 µM; IC50 [20]: 2 µM; IC50 [21]: 0.81 µM; IC50 (LCLC-97TM1): 2 µM
